Columns and labels:
[1] = case study, patient with hypertension, blood pressure and side effects; assay type: in vivo, human; conditions: 30 mg CoQ10 at 9 AM, patient on 40 mg telmisartan in the evening; reading by 12 PM, from 140/90 at 8 AM
Description: Because of these drug side effects, the patient subsequently dropped the amlodipine and took only a 40 mg daily dose of telmisartan in the evening before retiring. […] On one day with a reading of 140/90 at 8 AM, the patient took 30 mg of CoQ10 at 9 AM and their blood pressure sharply dropped to 103/71 by 12 PM. The patient subsequently began taking 30 mg CoQ10 in the morning and evening along with the evening only dose of 40 mg telmisartan.

[2] = test system: serum IL-6 and TNF-alpha; conditions: reported in the literature; cited from earlier work
[3] = eight human clinical trials; cited from earlier work

SMILES	blood pressure [1]	serum IL-6 [2]	serum TNF-alpha [2]	decrease of mean diastolic blood pressure [3] [mm Hg]	decrease of mean systolic blood pressure [3] [mm Hg]
COC1=C(OC)C(=O)C(C/C=C(\C)CC/C=C(\C)CC/C=C(\C)CC/C=C(\C)CC/C=C(\C)CC/C=C(\C)CC/C=C(\C)CC/C=C(\C)CC/C=C(\C)CCC=C(C)C)=C(C)C1=O [CoQ10, Coenzyme Q10]	103/71	reduces	reduces	10	16
CCOC(=O)[C@H](CCc1ccccc1)N[C@@H](C)C(=O)N1Cc2ccccc2C[C@H]1C(=O)O [quinapril]		lower	lower		
